Assay [1] can be described thus: Cytotoxicity against human MDA-MB-435S cells after 48 hrs by CCK-8 assay. The assay is classed as functional, cell-based. For orientation: Formazan colour is commonly taken as a measure of viable cells.
A further assay has as its system SW-620. The experiment in a line: Cytotoxicity against human SW620 cells after 48 hrs by CCK-8 assay. The conditions noted are these: SW-620, 48 h. The assay is classed as functional, cell-based.
The next assay deals with Jurkat. The experiment in a line: Cytotoxicity against human Jurkat cells after 48 hrs by CCK-8 assay. The assay is classed as functional, cell-based.
The next assay deals with Kasumi 1. The experiment in a line: Cytotoxicity against human Kasumi-1 cells after 48 hrs by CCK-8 assay. The conditions noted are these: Kasumi 1, 48 h. In kind it is functional, cell-based.
For a further assay, the system named is BT-549. The experiment in a line: Cytotoxicity against human BT549 cells after 48 hrs by CCK-8 assay. The assay is classed as functional, cell-based. The conditions noted are these: BT-549, 48 h.
A further assay deals with SK-BR-3. Description: Cytotoxicity against human SK-BR-3 cells after 48 hrs by CCK-8 assay. The conditions noted are these: SK-BR-3, 48 h. In kind it is functional, cell-based.
The next assay relates to HL-60. Description: Cytotoxicity against human HL60 cells after 48 hrs by CCK-8 assay. The assay is classed as functional, cell-based. The conditions noted are these: HL-60, 48 h.
The next assay concerns U-937. Description: Cytotoxicity against human U937 cells after 48 hrs by CCK-8 assay. In kind it is functional, cell-based. The note with it: U-937, 48 h.
In a further assay the test system is MCF7. The experiment in a line: Cytotoxicity against human MCF7 cells after 48 hrs by CCK-8 assay. In kind it is functional, cell-based. The note with it: MCF7, 48 h.
A short description of assay [2]: Cytotoxicity against human NB4 cells after 48 hrs by CCK-8 assay. In kind it is functional, cell-based. The note with it: NB-4, 48 h.
The subject of another assay is K562. Description: Cytotoxicity against human K562 cells after 48 hrs by CCK-8 assay. In kind it is functional, cell-based. The note with it: K562, 48 h.
A further assay relates to BT-474. Description: Cytotoxicity against human BT474 cells after 48 hrs by CCK-8 assay. The assay is classed as functional, cell-based. The note with it: BT-474, 48 h.
Assay [3] is described as follows: Cytotoxicity against human NB4 cells assessed as growth inhibition at 5 to 25 uM after 48 hrs by CCK-8 assay. The assay is classed as functional, NB-4.
The nature of assay [4]: Cytotoxicity against human NB4 cells assessed as growth inhibition at 0.2 uM after 48 hrs by CCK-8 assay. The note with it: NB-4, 48 h. In kind it is functional.

pIC50: −log10 of the molar value.

For the molecule `CCCCCCCCCC[C@H](O)COCCOC[C@@H](O)Cc1cn(CCCCCCCCCC2=C[C@H](C)OC2=O)nn1`, the negative logarithm of the IC50 (pIC50) (commonly −log10 of the IC50, conventionally taken in molar units) was < 4.60 in assay [1]; < 4.60 with SW-620; < 4.60 with Jurkat; 4.75 in the assay on Kasumi 1; < 4.60 with BT-549; < 4.60 in the assay with SK-BR-3. For the same molecule, the negative logarithm of the IC50 (pIC50) with HL-60 was < 4.60; in the assay on U-937 it was < 4.60; with MCF7, < 4.60; in assay [2], 5.49; in the assay with K562, 5.07; with BT-474, < 4.60.
In the case of `CCCCCCCCCC[C@H](O)COCCOC[C@@H](O)CC(=O)NCCCCCCCCCC1=C[C@H](C)OC1=O`, the pIC50 was < 4.60 in assay [1]; < 4.60 with SW-620; 4.85 in the assay on Jurkat; 4.78 in the assay with Kasumi 1; < 4.60 with BT-549; < 4.60 with SK-BR-3. In addition, the negative logarithm of the IC50 (pIC50) in the assay with HL-60 was 5.13; in the assay on U-937 it was 5.28; in the assay on MCF7 it was < 4.60; in [2] it was 5.35; in the assay on K562 it was 4.82; in the assay on BT-474, < 4.60.
As to `CCCCCCCCCC[C@H](O)COCCOC[C@@H](O)CCC1CCN(CCCCCCCCCC2=C[C@H](C)OC2=O)CC1`, the negative-log IC50 (pIC50) in [1] is 5.30; with SW-620, 5.09; in the assay with Jurkat, 5.92; in the assay with Kasumi 1, 5.41; with BT-549 it was 5.66; with SK-BR-3, 5.10. Besides, the negative logarithm of the IC50 (pIC50) was < 4.60 in the assay with HL-60; 5.36 in the assay on U-937; < 4.60 in the assay with MCF7; 5.72 in assay [2]; 5.51 in the assay on K562; < 4.60 in the assay with BT-474. In addition, the “inhibition (INH)” value in assay [3] is on record as >70%. Moreover, in assay [4], the inhibition (usually the percentage by which the read-out fell short of the control) at 0.2 µM is 6.2%.
With `CCCCCCCCCC[C@H](O)COCCOC[C@@H](O)CCCCCCCCCCCCC1=C[C@H](C)OC1=O`, the negative-log IC50 (pIC50) in [1] is < 4.60; with SW-620, < 4.60; in the assay with Jurkat, 5.59; with Kasumi 1, 5.96; in the assay on BT-549 it was 5.48; in the assay with SK-BR-3 it was 4.66. In addition, the negative logarithm of the IC50 (pIC50) with HL-60 is < 4.60; in the assay with U-937 it was 5.92; in the assay with MCF7 it was < 4.60; in [2], 6.15; with K562 it was 5.57; in the assay on BT-474 it was < 4.60. Also, the “inhibition (INH)” value in assay [3] is >70%. Besides, the inhibition at 0.2 µM in [4] was found to be 48.6%.
